Reference: paper PMC5293585, “Characteristics of a water-forming NADH oxidase from Methanobrevibacter smithii, an archaeon in the human gut” (Bioscience Reports, 2016)

Columns and labels:
[1] = target: T1, NOX-ms (Methanobrevibacter smithii, UniProt A5UJ73); test: absorption spectrum of holo, apo and reconstituted enzyme; activity restored by FAD; format: binding; settings: apoenzyme reconstituted with equimolar FAD, room temperature, 5 min, dialysed
T1 construct: gene Msm_0046; N-terminal His-tag (pET28a, EcoRI/XhoI), tag kept; E. coli BL21(DE3); FAD-containing holoenzyme (apo form for the FAD row)
T1 sequence (A5UJ73 1-444): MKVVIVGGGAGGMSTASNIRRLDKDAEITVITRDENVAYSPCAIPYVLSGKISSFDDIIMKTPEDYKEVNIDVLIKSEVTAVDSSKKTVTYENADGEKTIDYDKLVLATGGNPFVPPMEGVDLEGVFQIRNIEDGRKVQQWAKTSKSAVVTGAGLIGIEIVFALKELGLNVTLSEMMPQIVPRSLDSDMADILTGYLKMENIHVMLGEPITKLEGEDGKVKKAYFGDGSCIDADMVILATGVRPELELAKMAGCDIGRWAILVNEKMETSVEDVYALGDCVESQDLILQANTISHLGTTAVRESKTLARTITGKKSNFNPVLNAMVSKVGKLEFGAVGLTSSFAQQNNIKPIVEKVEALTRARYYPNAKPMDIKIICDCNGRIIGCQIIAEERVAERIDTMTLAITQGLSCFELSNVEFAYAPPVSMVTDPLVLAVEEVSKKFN

[2] = target: T2, NOX-ms (Methanobrevibacter smithii, UniProt A5UJ73, C230A); test: NADH oxidation at A340, relative activity; format: biochemical; settings: apparent; O2 as co-substrate (aerobic); NADH 0.02-0.6 mM; optimal conditions (about 37°C, 50 mM sodium phosphate)
T2 construct: gene Msm_0046; N-terminal His-tag (pET28a, EcoRI/XhoI), tag kept; E. coli BL21(DE3); FAD-containing holoenzyme (apo form for the FAD row)

[3] = target: T1, NOX-ms; test: NADH oxidation at A340, Michaelis-Menten fit; format: biochemical; settings: apparent; O2 as co-substrate (aerobic); NADH 0.02-0.6 mM; optimal conditions (about 37°C, 50 mM sodium phosphate)

T2 sequence (A5UJ73 entry or part of it C230A): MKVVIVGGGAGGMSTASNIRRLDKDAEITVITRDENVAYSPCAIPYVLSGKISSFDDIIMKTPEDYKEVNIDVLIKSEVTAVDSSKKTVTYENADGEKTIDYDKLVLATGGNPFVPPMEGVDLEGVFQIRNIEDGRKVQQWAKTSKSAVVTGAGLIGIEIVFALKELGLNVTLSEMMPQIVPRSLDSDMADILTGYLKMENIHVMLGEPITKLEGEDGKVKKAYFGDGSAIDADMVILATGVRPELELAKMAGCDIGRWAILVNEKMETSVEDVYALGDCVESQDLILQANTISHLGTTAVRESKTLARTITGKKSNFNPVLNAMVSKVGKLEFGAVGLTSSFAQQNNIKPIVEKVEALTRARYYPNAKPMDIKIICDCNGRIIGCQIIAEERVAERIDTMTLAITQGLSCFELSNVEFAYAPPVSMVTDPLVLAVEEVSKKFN

## Cc1cc2nc3c(=O)[nH]c(=O)nc-3n(C[C@H](O)[C@H](O)[C@H](O)COP(=O)(O)OP(=O)(O)OC[C@H]3O[C@@H](n4cnc5c(N)ncnc54)[C@H](O)[C@@H]3O)c2cc1C [FAD]
[1]
  absorption spectrum of holo, apo and reconstituted enzyme; activity restored by: The holoenzyme can be reconstituted by incubating equimolar concentrations of apomonomers and FAD

## NC(=O)C1=CN([C@@H]2O[C@H](COP(=O)(O)OP(=O)(O)OC[C@H]3O[C@@H](n4cnc5c(N)ncnc54)[C@H](O)[C@@H]3O)[C@@H](O)[C@H]2O)C=CC1 [NADH]
[2]
  NADH oxidation at A340, relative activity: the C230A mutant had similar NOX activity to that of the wild-type protein
[3]
  Km: 47.8 to 54.6 µM
